Patent publication US12054498B2, “Heteroaromatic macrocyclic ether chemotherapeutic agents” (Nuvalent, Inc., priority 2020, dated 2024)

How the values were obtained:
ROS1-wt = target: T1, ROS1-wt (Homo sapiens, UniProt P08922); experiment: Biochemical kinase assay, ROS1-wt kinase domain; conditions: apparent inhibitory constant, Morrison equation; ATP 2 mM in substrate solution; read-out: ROS1-wt Ki^app
T1 construct: purchased Carna 08-163
In short: (§1)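 Kinetic read: 485 nm, 2-min intervals, 120 min, 30 °C. Substrate mix — ATP 2 mM, AQT0101 26 μM, HEPES 50 mM pH 7.5, MgCl2 10 mM. Output: Ki^app, Morrison equation.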

Ba/F3 cells TPM3-TRKA = target: T2, Ba/F3 cells TPM3-TRKA (Homo sapiens, UniProt P04629); experiment: Ba/F3 cell proliferation assay, TPM3-TRKA; assay type: cell-based; conditions: 72 hours, CellTiter-Glo, read-out: TPM3-NTRK1-wt IC50
T2 construct: host or cells: Ba/F3 (RIKEN), retroviral pMSCV-puro; the other entry of the earlier key: TPM3 (P06753, Tropomyosin alpha-3 chain)
In short: (§2)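 Stable fusion-expressing Ba/F3 clones, 1,000 cells/well. Compounds for 72 h, CellTiter-Glo readout; IC50 by 4-parameter logistic regression.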

[1] = target: T3, Ba/F3 cells EML4-ALK L1196M/G1202R (variant 1) (Homo sapiens, UniProt Q9UM73, G1202R/L1196M); experiment: Ba/F3 cell proliferation assay, EML4-ALK L1196M/G1202R (variant 1); assay type: cell-based; conditions: 72 hours, CellTiter-Glo
T3 construct: echinoderm microtubule-associated protein-like 4 (EML4) gene and the ALK tyrosine kinase domain; host or cells: Ba/F3 (RIKEN), retroviral pMSCV-puro; the other entry of the earlier key: EML4 (Q9HC35, Echinoderm microtubule-associated protein-like 4)
In short: as §2

[2] = target: T4, Ba/F3 cells EML4-ALK wt (variant 1) (Homo sapiens, UniProt Q9UM73); experiment: Ba/F3 cell proliferation assay, EML4-ALK wt (variant 1); assay type: cell-based; conditions: 72 hours, CellTiter-Glo
T4 construct: echinoderm microtubule-associated protein-like 4 (EML4) gene and the ALK tyrosine kinase domain; host or cells: Ba/F3 (RIKEN), retroviral pMSCV-puro; the other entry of the earlier key: EML4 (Q9HC35, Echinoderm microtubule-associated protein-like 4)
In short: as §2

TRKA-wt = target: T5, TRKA-wt (Homo sapiens, UniProt P04629); experiment: Biochemical kinase assay, TRKA-wt kinase domain; conditions: apparent inhibitory constant, Morrison equation; ATP 2 mM in substrate solution; read-out: TRKA-wt Ki^app
T5 construct: or TRKA-wt (1 nM, BPS Bio, 40280) kinase domains in buffer; purchased BPS Bio 40280
In short: (§3)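 Compound in DMSO added first, then substrate solution (ATP 2 mM; AQT0101 or AQT0104, 26 μM; pH 7.5 HEPES, 10 mM MgCl2), then kinase solution with enzyme at 0.5–3 nM depending on construct. Kinetic read every 2 min for 120 min at 30° C; Ki^app by Morrison regression.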

[3] = target: T6, Ba/F3 cells CD74-ROS1 G2032R (Homo sapiens, UniProt P08922, G2032R); experiment: Ba/F3 cell proliferation assay, CD74-ROS1 G2032R; assay type: cell-based; conditions: 72 hours, CellTiter-Glo
T6 construct: fusion of the C-terminus of ROS1 with the N-terminus of various partner proteins; host or cells: Ba/F3 (RIKEN), retroviral pMSCV-puro; the other entry of the earlier key: CD74 (P04233, HLA class II histocompatibility antigen gamma chain)
In short: (§4)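 IL-3-independent Ba/F3 CD74-ROS1 lines, puromycin-selected monoclones; 1,000 cells/well, plated 1 d before dosing; 3-fold serial dilutions, 72 h; CellTiter-Glo luminescence; IC50 by 4-parameter logistic regression.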

[4] = system: TPM3-NTRK1-wt IC50 / primary target IC50 (e.g. CD74-ROS1-wt); experiment: TRKA selectivity in Ba/F3 cells (TRKA potency divided by primary target potency); assay type: cell-based; conditions: for TPM3-NTRK1-wt/CD74-ROS1-G2032R selectivity ratio: TRKA potency / CD74-ROS1-G2032R potency; for TPM3-NTRK1-wt/CD74-ROS1-wt selectivity ratio: TRKA potency / CD74-ROS1-wt potency; for TPM3-NTRK1-wt/EML4-ALK-L1196M-G1202R selectivity ratio: TRKA potency / EML4-ALK-L1196M-G1202R potency; for TPM3-NTRK1-wt/EML4-ALK-wt selectivity ratio: TRKA potency / EML4-ALK-wt potency
Protocol: TRKA selectivity was calculated by dividing a compound's TRKA potency by its primary target potency (e.g. TPM3-NTRK1-wt IC50/CD74-ROS1-wt IC50). Compound selectivity can be interpreted by binning ratio values: bin A for very high selectivity, ratio >30-fold; bin B for high selectivity, ratio >10-fold; bin C for moderate selectivity, ratio ≥1; and bin D for low selectivity, ratio <1. […] (nd=not determined).

ALK L1196M/G1202R = target: T7, ALK L1196M/G1202R (Homo sapiens, UniProt Q9UM73, G1202R/L1196M); experiment: Biochemical kinase assay, ALK L1196M/G1202R kinase domain; conditions: apparent inhibitory constant, Morrison equation; ATP 2 mM in substrate solution; read-out: ALK-L1196M-G1202R Ki^app
T7 construct: purchased SignalChem A19-12NG
In short: as §3

ROS1-G2032R = target: T8, ROS1-G2032R (Homo sapiens, UniProt P08922, G2032R); experiment: Biochemical kinase assay, ROS1-G2032R kinase domain; conditions: apparent inhibitory constant, Morrison equation; ATP 2 mM in substrate solution; read-out: ROS1-G2032R Ki^app
T8 construct: purchased SignalChem R14-12BG
In short: as §1

ALK-wt = target: T9, ALK-wt (Homo sapiens, UniProt Q9UM73); experiment: Biochemical kinase assay, ALK-wt kinase domain; conditions: apparent inhibitory constant, Morrison equation; ATP 2 mM in substrate solution; read-out: ALK-wt Ki^app
T9 construct: purchased Carna 08-518
In short: as §3

[5] = target: T10, Ba/F3 cells CD74-ROS1 wild-type (wt) (Homo sapiens, UniProt P08922); experiment: Ba/F3 cell proliferation assay, CD74-ROS1 wild-type; assay type: cell-based; conditions: 72 hours, CellTiter-Glo
T10 construct: fusion of the C-terminus of ROS1 with the N-terminus of various partner proteins; host or cells: Ba/F3 (RIKEN), retroviral pMSCV-puro; the other entry of the earlier key: CD74 (P04233, HLA class II histocompatibility antigen gamma chain)
In short: as §4

T4 sequence (Q9UM73 with tags, fused parts or gaps): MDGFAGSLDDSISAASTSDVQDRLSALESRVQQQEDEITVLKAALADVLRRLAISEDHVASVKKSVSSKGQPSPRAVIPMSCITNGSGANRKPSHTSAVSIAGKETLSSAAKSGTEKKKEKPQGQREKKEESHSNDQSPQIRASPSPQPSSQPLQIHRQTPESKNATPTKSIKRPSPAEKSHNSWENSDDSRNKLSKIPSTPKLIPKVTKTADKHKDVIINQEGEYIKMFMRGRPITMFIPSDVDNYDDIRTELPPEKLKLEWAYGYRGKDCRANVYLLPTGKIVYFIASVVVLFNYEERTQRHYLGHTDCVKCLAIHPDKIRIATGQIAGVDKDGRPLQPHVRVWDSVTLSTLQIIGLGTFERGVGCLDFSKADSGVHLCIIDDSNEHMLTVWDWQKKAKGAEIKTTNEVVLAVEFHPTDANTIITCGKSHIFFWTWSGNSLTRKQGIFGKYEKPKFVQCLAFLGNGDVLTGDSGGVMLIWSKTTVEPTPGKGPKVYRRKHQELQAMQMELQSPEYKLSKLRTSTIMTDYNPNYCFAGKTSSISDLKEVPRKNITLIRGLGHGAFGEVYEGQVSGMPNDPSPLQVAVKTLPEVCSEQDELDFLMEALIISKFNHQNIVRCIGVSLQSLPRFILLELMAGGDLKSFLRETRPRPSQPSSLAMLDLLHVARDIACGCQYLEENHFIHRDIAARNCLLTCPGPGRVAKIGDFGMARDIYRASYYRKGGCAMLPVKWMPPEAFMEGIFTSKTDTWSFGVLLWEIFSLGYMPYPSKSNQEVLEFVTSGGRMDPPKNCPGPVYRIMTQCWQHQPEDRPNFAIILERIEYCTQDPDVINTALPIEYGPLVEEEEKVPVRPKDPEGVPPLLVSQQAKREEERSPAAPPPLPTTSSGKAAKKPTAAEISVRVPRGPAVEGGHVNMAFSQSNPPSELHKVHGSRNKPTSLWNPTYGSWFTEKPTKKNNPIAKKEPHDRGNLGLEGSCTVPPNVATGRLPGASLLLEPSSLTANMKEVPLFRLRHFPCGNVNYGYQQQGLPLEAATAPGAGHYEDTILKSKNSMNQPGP
T7 sequence (Q9UM73 1116-1392 L1196M/G1202R limits assumed): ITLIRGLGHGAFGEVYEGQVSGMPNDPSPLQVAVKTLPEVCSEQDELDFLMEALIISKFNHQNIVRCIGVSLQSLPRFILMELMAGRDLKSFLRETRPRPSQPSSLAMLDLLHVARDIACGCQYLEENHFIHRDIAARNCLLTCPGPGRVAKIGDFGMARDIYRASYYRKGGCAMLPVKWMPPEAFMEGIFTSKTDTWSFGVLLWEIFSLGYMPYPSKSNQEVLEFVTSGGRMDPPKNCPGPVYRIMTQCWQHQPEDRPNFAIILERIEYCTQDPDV
T3 sequence (Q9UM73 with tags, fused parts or gaps L1196M/G1202R): as the sequence (Q9UM73 with tags, fused parts or gaps) above, with L635M, G641R counted along it
T10 sequence (P08922 1883-2347 limits assumed): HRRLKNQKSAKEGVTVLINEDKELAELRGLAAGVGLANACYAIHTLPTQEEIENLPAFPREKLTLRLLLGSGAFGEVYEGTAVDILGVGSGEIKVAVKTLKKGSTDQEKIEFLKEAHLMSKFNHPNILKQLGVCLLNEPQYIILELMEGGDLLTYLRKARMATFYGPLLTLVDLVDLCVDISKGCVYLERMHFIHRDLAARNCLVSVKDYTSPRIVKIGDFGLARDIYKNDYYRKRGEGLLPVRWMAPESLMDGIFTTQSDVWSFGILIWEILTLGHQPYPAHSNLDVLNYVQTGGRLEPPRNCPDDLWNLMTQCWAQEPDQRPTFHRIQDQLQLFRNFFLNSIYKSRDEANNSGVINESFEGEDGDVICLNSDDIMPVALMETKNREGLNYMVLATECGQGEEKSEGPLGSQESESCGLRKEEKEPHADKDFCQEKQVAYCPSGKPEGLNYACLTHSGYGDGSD
T9 sequence (Q9UM73 1116-1392 limits assumed): as the sequence (Q9UM73 1116-1392 L1196M/G1202R limits assumed) above, with M81L, R87G counted along it
T5 sequence (P04629 510-781 limits assumed): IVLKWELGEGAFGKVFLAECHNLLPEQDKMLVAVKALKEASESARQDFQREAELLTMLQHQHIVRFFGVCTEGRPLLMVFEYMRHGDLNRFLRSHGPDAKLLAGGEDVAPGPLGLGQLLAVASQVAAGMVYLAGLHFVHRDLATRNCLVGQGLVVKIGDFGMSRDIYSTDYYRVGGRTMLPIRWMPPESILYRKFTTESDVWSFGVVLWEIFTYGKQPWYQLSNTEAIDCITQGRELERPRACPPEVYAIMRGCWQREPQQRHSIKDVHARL
T2 sequence (P04629 510-796 limits assumed): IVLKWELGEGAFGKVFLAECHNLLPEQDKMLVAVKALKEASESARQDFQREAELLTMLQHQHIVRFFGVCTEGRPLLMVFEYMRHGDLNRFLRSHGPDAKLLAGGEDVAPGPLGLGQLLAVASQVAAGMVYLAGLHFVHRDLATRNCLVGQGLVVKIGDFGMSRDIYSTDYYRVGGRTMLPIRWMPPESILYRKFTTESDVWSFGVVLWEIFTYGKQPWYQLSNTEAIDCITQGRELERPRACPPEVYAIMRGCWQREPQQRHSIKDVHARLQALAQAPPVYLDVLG
T1 sequence (P08922 1945-2222 limits assumed): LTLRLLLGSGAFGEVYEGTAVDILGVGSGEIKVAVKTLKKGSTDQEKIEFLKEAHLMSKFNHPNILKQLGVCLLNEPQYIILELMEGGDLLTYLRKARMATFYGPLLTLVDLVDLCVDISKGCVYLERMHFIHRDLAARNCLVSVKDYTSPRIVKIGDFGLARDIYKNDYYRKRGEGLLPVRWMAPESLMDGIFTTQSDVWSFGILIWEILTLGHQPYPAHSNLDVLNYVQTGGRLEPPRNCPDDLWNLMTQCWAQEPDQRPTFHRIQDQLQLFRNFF
T8 sequence (P08922 1945-2222 G2032R limits assumed): as the sequence (P08922 1945-2222 limits assumed) above, with G88R counted along it
T6 sequence (P08922 1883-2347 G2032R limits assumed): as the sequence (P08922 1883-2347 limits assumed) above, with G150R counted along it

SMILES	Ki (ROS1-wt) [nM]	IC50 (Ba/F3 cells TPM3-TRKA) [nM]	IC50 [1] [nM]	IC50 [2] [nM]	Ki (TRKA-wt) [nM]	IC50 [3] [nM]	TPM3-NTRK1-wt/CD74-ROS1-G2032R selectivity ratio [4]	TPM3-NTRK1-wt/CD74-ROS1-wt selectivity ratio [4]	TPM3-NTRK1-wt/EML4-ALK-L1196M-G1202R selectivity ratio [4]	TPM3-NTRK1-wt/EML4-ALK-wt selectivity ratio [4]	Ki (ALK L1196M/G1202R) [nM]	Ki (ROS1-G2032R) [nM]	Ki (ALK-wt) [nM]	IC50 [5] [nM]
C[C@H]1Oc2cc(cnc2N)-c2c(C#N)ncn2Cc2ncc(F)cc2-c2ccc(F)cc21 [Example 48, (20R)-23-amino-11,17-difluoro-20-methyl-21-oxa-4,6,9,24-tetraazapentacyclo[20.3.1.0^2,^6.0^8,^13.0^14,^19]hexacosa-1(25),2,4,8(13),9,11,14,16,1 8,22(26),23-undecaene-3-carbonitrile]	< 50	> 500	0.1 to 50	0.1 to 50	50 to 500	0.1 to 50	A (bin A for very high selectivity, ratio >30-fold)	A (bin A for very high selectivity, ratio >30-fold)	B (bin B for high selectivity, ratio >10-fold)	A (bin A for very high selectivity, ratio >30-fold)	< 50	< 50	< 50	0.1 to 50
C[C@H]1Oc2cc(cnc2N)-c2c(C#N)noc2Cn2nccc2-c2ccc(F)cc21 [Example 20, (19R)-22-amino-16-fluoro-19-methyl-5,20-dioxa-4,8,9,23-tetraazapentacyclo[19.3.1.0^2,^6.0^8,^12.0^13,^18]pentacosa-1(24),2(6),3,9,11,13(18), 4,16,21 (25),22-decaene-3-carbonitrile]	< 50	> 500	> 500	50 to 500	> 500	50 to 500	A (bin A for very high selectivity, ratio >30-fold)	A (bin A for very high selectivity, ratio >30-fold)	C (bin C for moderate selectivity, ratio ≥1)	A (bin A for very high selectivity, ratio >30-fold)	50 to 500	50 to 500	< 50	0.1 to 50
CCn1ncc2c1-c1cnc(N)c(c1)O[C@H](C)c1cc(F)ccc1-c1ccnn1C2 [Example 1, (19R)-3-ethyl-16-fluoro-19-methyl-20-oxa-3,4,8,9,23-pentaazapentacyclo[19.3.1.0^2,^6.0^8,^12.0^13,^18]pentacosa-1(24),2(6),4,9,11,13,15,17,21(25),22-decaen-22-amine]	< 50	> 500	50 to 500	0.1 to 50	50 to 500	0.1 to 50	A (bin A for very high selectivity, ratio >30-fold)	A (bin A for very high selectivity, ratio >30-fold)	B (bin B for high selectivity, ratio >10-fold)	A (bin A for very high selectivity, ratio >30-fold)	< 50	< 50	< 50	0.1 to 50
CCn1ncc2c1-c1cnc(N)c(c1)O[C@H](C)c1cc(F)ccc1-c1nc(C)nn1C2 [Example 33, (19R)-3-ethyl-16-fluoro-10,19-dimethyl-20-oxa-hexaazapentacyclo[19.3.1.0^2,^6.0^8,^12.0^13,^18]pentacosa-1(24),2(6),4,9,11,13,15,17,21(25),22-decaen-22-amine]	< 50	50 to 500	50 to 500	0.1 to 50	50 to 500	0.1 to 50	A (bin A for very high selectivity, ratio >30-fold)	A (bin A for very high selectivity, ratio >30-fold)	C (bin C for moderate selectivity, ratio ≥1)	A (bin A for very high selectivity, ratio >30-fold)	< 50	< 50	< 50	0.1 to 50
CCn1ncc2c1-c1cnc(N)c(c1)O[C@H](C)c1cc(F)ccc1-n1ncnc1C2 [Example 38, (19R)-3-ethyl-16-fluoro-19-methyl-20-oxa-3,4,9,11,12,23-hexaazapentacyclo[19.3.1.0^2,^6.0^8,^12.0^13,^18]pentacosa-1(24),2(6),4,8,10,13,15,17,21(25),22-decaen-22-amine]	< 50	> 500	50 to 500	0.1 to 50	50 to 500	0.1 to 50	A (bin A for very high selectivity, ratio >30-fold)	A (bin A for very high selectivity, ratio >30-fold)	C (bin C for moderate selectivity, ratio ≥1)	A (bin A for very high selectivity, ratio >30-fold)	< 50	< 50	< 50	0.1 to 50
CCn1ncc2c1-c1cnc(N)c(c1)O[C@H](C)c1cc(F)ccc1-c1cn(C)nc1C2 [Example 9, (19R)-3-ethyl-16-fluoro-10,19-dimethyl-20-oxa-3,4,9,10,23-pentaazapentacyclo[19.3,1.0^2,^6.0^8,^12.0^13,^18]pentacosa-1(24),2(6),4,8,11,13,15,17,21 (25),22-decaen-22-amine]	< 50	> 500	0.1 to 50	0.1 to 50	50 to 500	0.1 to 50	A (bin A for very high selectivity, ratio >30-fold)	A (bin A for very high selectivity, ratio >30-fold)	B (bin B for high selectivity, ratio >10-fold)	A (bin A for very high selectivity, ratio >30-fold)	< 50	< 50	< 50	0.1 to 50
